Reference: publication PMC12845261, “Design, Synthesis, and Biological Evaluation of N-Acyl-Hydrazone-Linked Quinazolinone Derivatives with Antioxidant, Antimicrobial, and Anticancer Potential” (Pharmaceuticals, 2025)
≈ marks a conversion by molar mass, not a printed value.

Key:
E. coli ATCC 25922 [1] = assay: Qualitative antimicrobial activity, adapted Kirby-Bauer (inhibition zone); assay type: cell-based; details: reference drug at 100 μg/mL
Experimental: (§1) For the evaluation of antimicrobial activity, the following reference strains were used: S. aureus ATCC 25923, E. faecalis ATCC 29212, E. coli ATCC 25922, P. aeruginosa ATCC 27853 and C. albicans ATCC 10231. The microbial suspensions were prepared at a density of 1.5 × 10^8 CFU/mL, corresponding to the McFarland 0.5 nephelometric standard. These suspensions were obtained from 18–24 h cultures developed on solid media (Mueller-Hinton for bacteria, Sabouraud for yeast). Antimicrobial activity was assessed using an adapted Kirby-Bauer method according to CLSI (Clinical and Laboratory Standards Institute). In addition to the 10 mg/mL stock solutions prepared in DMSO for each compound, a solvent control was used. Each stock solution (10 μL) was distributed in spot on the medium inoculated with the interest strain. After measuring the diameter of the inhibition zone (IZD) around the spot (mm), the results were expressed as the mean ± standard deviation (SD) for each compound tested in duplicate.

E. faecalis ATCC 29212 [2] = assay: as above; assay type: cell-based; details: reference drug at 100 μg/mL
Experimental: as §1

P. aeruginosa ATCC 27853 [3] = assay: as above; assay type: cell-based; details: reference drug at 100 μg/mL
Experimental: as §1

S. aureus ATCC 25923 [4] = assay: as above; assay type: cell-based; details: reference drug at 100 μg/mL
Experimental: as §1

E. coli ATCC 25922 [5] = assay: Quantitative antimicrobial activity, serial binary microdilution (MIC, IC50); assay type: cell-based; details: Escherichia coli, ATCC25922; E. coli ATCC 25922; reference drug
Experimental: (§2) For the evaluation of antimicrobial activity, the following reference strains were used: S. aureus ATCC 25923, E. faecalis ATCC 29212, E. coli ATCC 25922, P. aeruginosa ATCC 27853 and C. albicans ATCC 10231.
(§3) Quantitative analysis was performed using the method of serial binary microdilutions in liquid medium (Tryptone Soy Broth for bacteria and Sabouraud Broth for yeasts) in plates with 96 wells. Stock solutions of 10 mg/mL were made in DMSO, and the range of concentrations tested for each compound was 5000–0.16 μg/mL. Simultaneously, the DMSO control was carried out under the same working conditions. Each well was inoculated with 10 μL of microbial suspension, adjusted to a density of 1.5 × 10^8 CFU/mL prepared from 18 to 24 h cultures. After 24 h of incubation at 37 °C, microbial growth and multiplication were evaluated both macroscopically and spectrophotometrically at 620 nm to establish the MIC values. […] Blanks were made for each sample concentration, and the formula was applied: Microbial viability(%)=Asample−Ablank/Astrain control−Asterility control·100

E. faecalis ATCC 29212 [6] = assay: as above; assay type: cell-based; details: Enterococcus faecalis, ATCC29212, reference drug
Experimental: as §2, §3

P. aeruginosa ATCC 27853 [7] = assay: as above; assay type: cell-based; details: Pseudomonas aeruginosa, ATCC27853, reference drug
Experimental: as §2, §3

S. aureus ATCC 25923 [8] = assay: as above; assay type: cell-based; details: Staphylococcus aureus, ATCC25923; S. aureus ATCC 25923; reference drug
Experimental: as §2, §3

E. coli ATCC 25922 [9] = assay: Microbicidal activity (MMC); assay type: cell-based; details: reference drug
Experimental: (§4) For the evaluation of antimicrobial activity, the following reference strains were used: S. aureus ATCC 25923, E. faecalis ATCC 29212, E. coli ATCC 25922, P. aeruginosa ATCC 27853 and C. albicans ATCC 10231. To determine the MMCs, 5 μL of culture was taken from each well and distributed on solid medium. The plates were incubated for 20–24 h at 37 °C. The lowest concentration at which no microbial growth was observed was considered MMC.

E. faecalis ATCC 29212 [10] = assay: Microbicidal activity (MMC); assay type: cell-based; details: reference drug
Experimental: as §4

P. aeruginosa ATCC 27853 [11] = assay: Microbicidal activity (MMC); assay type: cell-based; details: reference drug
Experimental: as §4

S. aureus ATCC 25923 [12] = assay: Microbicidal activity (MMC); assay type: cell-based; details: reference drug
Experimental: as §4

E. coli ATCC 25922 [13] = assay: Microbial adhesion, crystal violet (MICMA); assay type: cell-based; details: reference drug
Experimental: as §2
(§5) Following quantitative analysis of antimicrobial activity, microbial adhesion was evaluated after methanol fixation and violet crystal staining (0.1%). The absorbance of the adhered biomass colored with violet crystal and resuspended in 33% acetic acid was measured at 490 nm.

E. faecalis ATCC 29212 [14] = assay: Microbial adhesion, crystal violet (MICMA); assay type: cell-based; details: reference drug
Experimental: as §2, §5

P. aeruginosa ATCC 27853 [15] = assay: Microbial adhesion, crystal violet (MICMA); assay type: cell-based; details: reference drug
Experimental: as §2, §5

S. aureus ATCC 25923 [16] = assay: Microbial adhesion, crystal violet (MICMA); assay type: cell-based; details: reference drug
Experimental: as §2, §5

[17] = system: HT-29 (human colorectal adenocarcinoma); assay: Cytotoxicity, MTT assay; assay type: cell-based; details: 24 h, tested range 3.125 to 50 µM
Experimental: (§6) For the cytotoxicity screening of the N-acyl-hydrazone derivatives, three cell lines were employed: HT-29 (human colorectal adenocarcinoma), A431 (human epidermoid carcinoma), and VERO (non-tumoral African green monkey kidney epithelial cells). All cell lines were obtained from the American Type Culture Collection (ATCC, Manassas, VA, USA), and maintained in appropriate culture media as follows: HT-29 and A431 cells were cultured in Dulbecco’s Modified Eagle Medium (DMEM), while VERO cells were cultured in Minimum Essential Medium (MEM). Both culture media were supplemented with 10% fetal bovine serum (FBS) and 1% penicillin-streptomycin mix, to formulate the complete culture medium. All cell lines were incubated at 37 °C in a humidified atmosphere containing 5% CO2. […] For the cytotoxicity screening, cells were seeded into sterile 96-well plates at an initial density of 1 × 10^4 cells/well and allowed to adhere for 24 h. Subsequently, cells were treated with increasing concentrations (3.125 to 50 µM) of compounds 1a–1f and 2 for 24 h. In parallel, 5-fluorouracil (5-FU, Sigma Aldrich, St. Louis, MO, USA) was included as a reference drug and tested over the same concentration range under identical experimental conditions. […] For the experimental control, culture medium was refreshed at the time of treatment application. […] Louis, MO, USA). Briefly, the culture media were discarded from each well and replaced with a fresh solution of MTT (1 mg/mL). Plates were incubated for 4 h at 37 °C, and the resulting formazan crystals were solubilized with isopropanol. The absorbance was measured at 550 nm using the FlexStation III multimodal reader (Molecular Devices, San Jose, CA, USA). All experiments were performed in triplicate and repeated in three independent assays. Cell viability was calculated as a percentage relative to the untreated control using the formula Cell Viability (%) = (Abs treated/Abs control) × 100. Data were processed using GraphPad Prism 6.0 and presented as mean ± standard deviation (SD). Statistical analysis was performed using one-way analysis of variance (ANOVA) followed by Dunnett’s post hoc test for comparison with the untreated control group.

[18] = system: VERO (non-tumoral African green monkey kidney epithelial cells); assay: Cytotoxicity, MTT assay; assay type: cell-based; details: 24 h
Experimental: as §6

C. albicans ATCC 10231 [19] = assay: Qualitative antimicrobial activity, adapted Kirby-Bauer (inhibition zone); assay type: cell-based; details: reference drug at 140 μg/mL
Experimental: as §1

C. albicans ATCC 10231 [20] = assay: Quantitative antimicrobial activity, serial binary microdilution (MIC, IC50); assay type: cell-based; details: Candida albicans, ATCC10231, reference drug
Experimental: as §2, §3

C. albicans ATCC 10231 [21] = assay: Microbicidal activity (MMC); assay type: cell-based; details: reference drug
Experimental: as §4

C. albicans ATCC 10231 [22] = assay: Microbial adhesion, crystal violet (MICMA); assay type: cell-based; details: reference drug
Experimental: as §2, §5

[23] = Total antioxidant capacity (TAC), DPPH method; details: 30 min, 517 nm, compound stock 1 mg/mL in methanol, reference ascorbic acid TAC = 100%
Experimental: The total antioxidant capacity (TAC) was evaluated using diphenyl-1-picrylhydrazyl free radical (DPPH) method. The TAC value was determined in relation to the antioxidant capacity of the reference (ascorbic acid, TAC = 100%). […] The maximum value was recorded for 1c (~45%), followed by 1f and 1a (~43%), while the minimum for 1e (~19%).
In this study, the TAC values were obtained using the most-known DPPH method, in which the intense violet colour of the free radical solution is decreasing. Stock solutions of compounds 1a–1f and 2 were prepared in absolute methanol at a concentration of 1 mg/mL. A stock solution of 2,2-diphenyl-1-picrylhydrazyl free radical was obtained in the same solvent, at a concentration of 2 × 10^−4 M. To 1.8 mL of DPPH solution was added 0.2 mL of each solution of the compounds 1a–1f and 2 and the mixture was left in the dark for 30 min, followed by measurements of the absorbance at 517 nm. The following equation was used to calculate TAC: TAC%=Abs0 min−Abs30 min/Abs0min·100 where Abs0 min refers to the initial absorbance of the DPPH free radical solution, and Abs 30 min refers to the absorbance of the solution of DPPH and the added compound after 30 min. Ascorbic acid was used as a reference.

Question: Which “IZD (100 μg/mL, mm)” value (E. coli ATCC 25922 [1]) does the source give for `O=C(O)c1cn(C2CC2)c2cc(N3CCNCC3)c(F)cc2c1=O` [Ciprofloxacin, ciprofloxacin, reference compound] here?
Answer: The value was 34.00 ± 2.00 mm.

Question: And the “IZD (100 μg/mL, mm)” value (E. faecalis ATCC 29212 [2])?
Answer: The value was 8.33 ± 0.58 mm.

Question: And the “IZD (100 μg/mL, mm)” value (P. aeruginosa ATCC 27853 [3])?
Answer: Its value is 15.33 ± 0.58 mm.

Question: And the “IZD (100 μg/mL, mm)” value (S. aureus ATCC 25923 [4])?
Answer: Its value is 17.33 ± 0.58 mm.

Question: What about the MIC (E. coli ATCC 25922 [5]) of the same molecule?
Answer: The MIC was 0.2 µg/mL (≈ 0.604 µM).

Question: What about the MIC (E. faecalis ATCC 29212 [6]) of the same molecule?
Answer: The MIC was 0.78 µg/mL (≈ 2.35 µM).

Question: And the MIC (P. aeruginosa ATCC 27853 [7])?
Answer: The MIC was 0.39 µg/mL (≈ 1.18 µM).

Question: And the MIC (S. aureus ATCC 25923 [8])?
Answer: Its MIC is 0.78 µg/mL (≈ 2.35 µM).

Question: What about the “MMC” value (E. coli ATCC 25922 [9]) of the same molecule?
Answer: Its value is 0.78 µg/mL.

Question: And the “MMC” value (E. faecalis ATCC 29212 [10])?
Answer: The value was 6.25 µg/mL.

Question: What about the “MMC” value (P. aeruginosa ATCC 27853 [11]) of the same molecule?
Answer: Its value is 0.39 µg/mL.

Question: What about the “MMC” value (S. aureus ATCC 25923 [12]) of the same molecule?
Answer: Its value is 1.56 µg/mL.

Question: What about the “MICMA” value (E. coli ATCC 25922 [13]) of the same molecule?
Answer: The value was <0.10 µg/mL.

Question: What about the “MICMA” value (E. faecalis ATCC 29212 [14]) of the same molecule?
Answer: The value was 0.78 µg/mL.

Question: And the “MICMA” value (P. aeruginosa ATCC 27853 [15])?
Answer: Its value is 0.39 µg/mL.

Question: What about the “MICMA” value (S. aureus ATCC 25923 [16]) of the same molecule?
Answer: The value was 0.39 µg/mL.

Question: Which IC50 [17] does the source give for `O=c1[nH]cc(F)c(=O)[nH]1` [Compound 5-FU, 5-fluorouracil, reference compound] here?
Answer: The IC50 was “not reached within the tested concentration range”.

Question: And the “Maximum reduction in viability” value ([18]; 50 µM)?
Answer: Its value is “approximately 25%”.

Question: And the IC50 ([18]; tested range 3.125 to 50 µM)?
Answer: The IC50 was “not reached within the tested range”.

Question: Which “IZD (140 μg/mL, mm)” value (C. albicans ATCC 10231 [19]) does the source give for `CC(=O)N1CCN(c2ccc(OCC3COC(Cn4ccnc4)(c4ccc(Cl)cc4Cl)O3)cc2)CC1` (stereo not drawn) [Ketoconazole, ketoconazole, reference compound] here?
Answer: Its value is 6.5 ± 0.71 mm.

Question: And the MIC (C. albicans ATCC 10231 [20])?
Answer: Its MIC is 8.75 µg/mL (≈ 16.5 µM).

Question: And the “MMC” value (C. albicans ATCC 10231 [21])?
Answer: The value was 35 µg/mL.

Question: What about the “MICMA” value (C. albicans ATCC 10231 [22]) of the same molecule?
Answer: The value was 0.27 µg/mL.

Question: With `O=C1O[C@H]([C@@H](O)CO)C(O)=C1O` [ascorbic acid, reference compound] as the molecule, how does the “TAC (%)” value [23] read?
Answer: Its value is 100%.
